Experiment [1] addresses T1, Protein kinase C zeta type (Homo sapiens) (UniProt Q05513).
T1 sequence (whole entry): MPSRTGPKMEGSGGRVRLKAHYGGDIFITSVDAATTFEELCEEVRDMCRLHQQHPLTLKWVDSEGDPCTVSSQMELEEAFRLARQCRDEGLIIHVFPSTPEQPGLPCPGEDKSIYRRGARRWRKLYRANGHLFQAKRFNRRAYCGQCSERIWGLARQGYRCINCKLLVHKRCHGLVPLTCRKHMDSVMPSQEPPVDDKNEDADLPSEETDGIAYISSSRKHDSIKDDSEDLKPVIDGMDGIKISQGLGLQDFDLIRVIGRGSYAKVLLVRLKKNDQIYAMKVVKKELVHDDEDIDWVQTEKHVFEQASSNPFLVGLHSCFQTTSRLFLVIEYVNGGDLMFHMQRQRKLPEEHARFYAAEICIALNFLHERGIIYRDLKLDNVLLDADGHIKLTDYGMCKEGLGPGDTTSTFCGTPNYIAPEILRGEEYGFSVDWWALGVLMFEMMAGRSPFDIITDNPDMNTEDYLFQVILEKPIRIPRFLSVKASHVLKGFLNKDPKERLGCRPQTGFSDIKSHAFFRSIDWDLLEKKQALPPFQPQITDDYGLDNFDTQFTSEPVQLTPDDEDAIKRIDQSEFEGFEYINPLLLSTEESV
Nature of the experiment: Inhibition of human PKCzeta at 18.6 nM by HotSpot assay relative to control.

Experiment [2] addresses T2, Tyrosine-protein kinase receptor TYRO3 (Homo sapiens) (UniProt Q06418).
T2 sequence (whole entry): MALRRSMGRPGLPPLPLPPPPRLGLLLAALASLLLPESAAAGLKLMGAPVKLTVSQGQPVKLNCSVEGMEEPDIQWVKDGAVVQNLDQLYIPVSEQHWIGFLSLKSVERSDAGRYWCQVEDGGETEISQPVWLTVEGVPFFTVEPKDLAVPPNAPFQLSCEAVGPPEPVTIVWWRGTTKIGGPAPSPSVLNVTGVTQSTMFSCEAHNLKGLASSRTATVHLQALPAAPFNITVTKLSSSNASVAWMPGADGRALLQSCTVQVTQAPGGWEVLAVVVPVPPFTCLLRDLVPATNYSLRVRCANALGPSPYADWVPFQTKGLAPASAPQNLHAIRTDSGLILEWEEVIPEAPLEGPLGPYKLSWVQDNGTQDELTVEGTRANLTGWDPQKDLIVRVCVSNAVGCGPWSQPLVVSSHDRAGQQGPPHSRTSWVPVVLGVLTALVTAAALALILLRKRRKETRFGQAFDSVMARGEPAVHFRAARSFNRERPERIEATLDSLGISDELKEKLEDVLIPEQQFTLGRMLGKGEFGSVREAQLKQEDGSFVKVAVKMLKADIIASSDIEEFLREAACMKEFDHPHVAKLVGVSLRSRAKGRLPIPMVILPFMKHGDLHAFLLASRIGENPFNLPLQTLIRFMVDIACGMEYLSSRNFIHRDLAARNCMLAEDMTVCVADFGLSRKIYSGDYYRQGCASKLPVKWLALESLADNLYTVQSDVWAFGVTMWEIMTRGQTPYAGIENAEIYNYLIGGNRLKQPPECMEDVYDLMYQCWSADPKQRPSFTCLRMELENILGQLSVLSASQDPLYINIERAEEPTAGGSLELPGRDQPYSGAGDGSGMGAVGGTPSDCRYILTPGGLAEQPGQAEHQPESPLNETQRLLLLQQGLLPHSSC
The experiment can be described thus: Inhibition of human SKY at 18.6 nM by HotSpot assay relative to control.

For experiment [3], the target named is T3, Inhibitor of nuclear factor kappa-B kinase subunit alpha (Homo sapiens) (UniProt O15111).
T3 sequence (whole entry): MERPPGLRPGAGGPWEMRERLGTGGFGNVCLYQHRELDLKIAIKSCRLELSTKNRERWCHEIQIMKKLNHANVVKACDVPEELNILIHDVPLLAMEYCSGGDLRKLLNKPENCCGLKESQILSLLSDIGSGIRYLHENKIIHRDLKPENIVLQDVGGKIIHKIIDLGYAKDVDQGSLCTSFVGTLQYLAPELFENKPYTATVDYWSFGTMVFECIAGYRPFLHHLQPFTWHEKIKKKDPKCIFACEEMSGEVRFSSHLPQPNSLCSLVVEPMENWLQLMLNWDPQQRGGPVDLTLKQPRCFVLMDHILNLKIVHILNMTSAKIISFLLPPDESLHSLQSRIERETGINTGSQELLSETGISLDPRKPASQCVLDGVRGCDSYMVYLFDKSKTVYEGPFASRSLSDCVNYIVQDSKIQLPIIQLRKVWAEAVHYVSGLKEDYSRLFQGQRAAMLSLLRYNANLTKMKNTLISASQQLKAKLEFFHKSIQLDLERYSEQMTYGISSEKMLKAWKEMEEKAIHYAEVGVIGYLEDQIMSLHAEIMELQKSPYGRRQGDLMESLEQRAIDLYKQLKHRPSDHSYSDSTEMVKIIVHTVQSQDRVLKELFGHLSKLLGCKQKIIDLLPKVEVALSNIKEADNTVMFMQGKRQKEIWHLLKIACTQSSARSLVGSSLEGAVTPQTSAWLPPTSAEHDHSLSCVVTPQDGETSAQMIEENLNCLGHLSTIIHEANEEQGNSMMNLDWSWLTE
The experiment can be described thus: Inhibition of human IKKa at 18.6 nM by HotSpot assay relative to control.

For experiment [4], the target named is Serine/threonine-protein kinase PAK 1 (Homo sapiens) (UniProt Q13153). Nature of the experiment: Inhibition of human PAK1 at 18.6 nM by HotSpot assay relative to control.
Experiment [5] deals with CDK6/cyclin D3 (Homo sapiens) (UniProt P30281+Q00534). The experiment can be described thus: Inhibition of human CDK6/cyclin D3 at 18.6 nM by HotSpot assay relative to control. In kind it is protein-complex assay.
The target of experiment [6] is Cyclin-dependent kinase 5/CDK5 activator 1 (Homo sapiens) (UniProt Q00535+Q15078). Nature of the experiment: Inhibition of human CDK5/p35 at 18.6 nM by HotSpot assay relative to control. Type of experiment: protein-complex assay.
For experiment [7], the target named is Dual specificity protein kinase CLK3 (Homo sapiens) (UniProt P49761). Nature of the experiment: Inhibition of human CLK3 at 18.6 nM by HotSpot assay relative to control.
Experiment [8] concerns the target Cyclin-dependent kinase 2/cyclin E1 (Homo sapiens) (UniProt P24864+P24941). Nature of the experiment: Inhibition of human CDK2/cyclin E at 18.6 nM by HotSpot assay relative to control. Type of experiment: protein-complex assay.
The target in experiment [9] is Mitogen-activated protein kinase 8 (Homo sapiens) (UniProt P45983). The experiment can be described thus: Inhibition of human JNK1 at 18.6 nM by HotSpot assay relative to control.
Experiment [10] has as its target Epidermal growth factor receptor (Homo sapiens) (UniProt P00533). The experiment can be described thus: Inhibition of human EGFR at 1.82 nM by HotSpot assay relative to control.
In experiment [11] the target is Tyrosine-protein kinase Yes (Homo sapiens) (UniProt P07947). Nature of the experiment: Inhibition of human YES1 at 1.82 nM by HotSpot assay relative to control.
The target in experiment [12] is Casein kinase I isoform gamma-1 (Homo sapiens) (UniProt Q9HCP0). The experiment can be described thus: Inhibition of human CK1g1 at 500 nM by HotSpot assay relative to control.

The inhibition is the drop in the measured response relative to a control, in per cent.

Sequence of Cyclin-dependent kinase 5/CDK5 activator 1 (Homo sapiens) (Q00535 whole entry): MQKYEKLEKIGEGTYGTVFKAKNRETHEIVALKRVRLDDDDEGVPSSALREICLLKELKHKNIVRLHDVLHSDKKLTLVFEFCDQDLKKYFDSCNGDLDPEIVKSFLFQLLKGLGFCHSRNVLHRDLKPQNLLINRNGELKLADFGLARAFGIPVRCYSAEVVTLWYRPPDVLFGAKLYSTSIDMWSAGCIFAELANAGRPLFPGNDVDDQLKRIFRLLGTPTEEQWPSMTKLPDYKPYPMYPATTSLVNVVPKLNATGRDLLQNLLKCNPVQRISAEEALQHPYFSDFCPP
Sequence of Cyclin-dependent kinase 5/CDK5 activator 1 (Homo sapiens) (Q15078 99-307 partner limits assumed): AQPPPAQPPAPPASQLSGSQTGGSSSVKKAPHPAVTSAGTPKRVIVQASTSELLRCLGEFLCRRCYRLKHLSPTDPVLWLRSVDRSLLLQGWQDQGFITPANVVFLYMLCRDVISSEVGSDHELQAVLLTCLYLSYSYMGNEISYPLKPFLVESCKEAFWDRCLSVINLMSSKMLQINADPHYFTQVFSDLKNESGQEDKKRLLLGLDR
Sequence of Casein kinase I isoform gamma-1 (Homo sapiens) (Q9HCP0 whole entry, looked up, canonical isoform): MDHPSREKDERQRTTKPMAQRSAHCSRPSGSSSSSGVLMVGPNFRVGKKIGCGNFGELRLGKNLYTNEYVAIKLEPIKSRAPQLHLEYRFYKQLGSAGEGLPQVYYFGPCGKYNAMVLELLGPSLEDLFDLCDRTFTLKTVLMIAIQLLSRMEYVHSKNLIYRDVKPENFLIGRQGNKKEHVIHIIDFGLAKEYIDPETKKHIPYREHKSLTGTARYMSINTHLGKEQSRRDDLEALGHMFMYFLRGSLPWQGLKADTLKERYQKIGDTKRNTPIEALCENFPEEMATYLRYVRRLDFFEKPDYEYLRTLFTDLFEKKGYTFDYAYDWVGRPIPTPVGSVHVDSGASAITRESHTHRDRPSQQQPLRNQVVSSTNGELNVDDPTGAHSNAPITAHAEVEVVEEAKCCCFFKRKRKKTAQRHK
Sequence of Epidermal growth factor receptor (Homo sapiens) (P00533 whole entry): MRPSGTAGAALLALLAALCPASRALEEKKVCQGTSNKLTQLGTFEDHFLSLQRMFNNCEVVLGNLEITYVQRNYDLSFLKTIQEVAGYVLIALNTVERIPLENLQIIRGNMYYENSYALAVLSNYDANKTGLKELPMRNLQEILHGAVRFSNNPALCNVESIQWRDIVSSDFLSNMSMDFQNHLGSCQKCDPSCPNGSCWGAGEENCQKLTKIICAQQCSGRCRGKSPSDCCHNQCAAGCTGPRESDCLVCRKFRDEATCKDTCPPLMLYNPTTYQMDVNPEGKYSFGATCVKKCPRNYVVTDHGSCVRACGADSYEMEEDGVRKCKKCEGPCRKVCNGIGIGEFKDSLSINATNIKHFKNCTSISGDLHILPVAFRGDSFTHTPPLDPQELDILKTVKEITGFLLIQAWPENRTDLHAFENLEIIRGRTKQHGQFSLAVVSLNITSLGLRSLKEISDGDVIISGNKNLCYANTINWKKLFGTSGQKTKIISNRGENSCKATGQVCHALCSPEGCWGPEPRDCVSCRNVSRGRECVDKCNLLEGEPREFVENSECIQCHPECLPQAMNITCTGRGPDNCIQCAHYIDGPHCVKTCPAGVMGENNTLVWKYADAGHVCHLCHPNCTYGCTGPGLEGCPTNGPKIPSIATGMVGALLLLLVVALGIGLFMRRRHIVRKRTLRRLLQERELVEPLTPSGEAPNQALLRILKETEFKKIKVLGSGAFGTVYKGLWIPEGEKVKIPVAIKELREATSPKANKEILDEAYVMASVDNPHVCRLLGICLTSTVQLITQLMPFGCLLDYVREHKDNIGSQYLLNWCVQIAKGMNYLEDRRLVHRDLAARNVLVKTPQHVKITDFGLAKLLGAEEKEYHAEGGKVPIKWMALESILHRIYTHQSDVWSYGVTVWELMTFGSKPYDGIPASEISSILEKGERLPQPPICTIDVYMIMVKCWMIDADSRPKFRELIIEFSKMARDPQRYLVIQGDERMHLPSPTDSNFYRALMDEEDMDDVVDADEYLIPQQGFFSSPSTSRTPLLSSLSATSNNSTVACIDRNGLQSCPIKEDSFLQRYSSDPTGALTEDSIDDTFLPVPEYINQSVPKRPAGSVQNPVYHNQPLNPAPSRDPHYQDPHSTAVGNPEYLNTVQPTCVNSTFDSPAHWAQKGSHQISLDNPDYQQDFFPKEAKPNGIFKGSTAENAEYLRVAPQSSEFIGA
Sequence of Mitogen-activated protein kinase 8 (Homo sapiens) (P45983 whole entry): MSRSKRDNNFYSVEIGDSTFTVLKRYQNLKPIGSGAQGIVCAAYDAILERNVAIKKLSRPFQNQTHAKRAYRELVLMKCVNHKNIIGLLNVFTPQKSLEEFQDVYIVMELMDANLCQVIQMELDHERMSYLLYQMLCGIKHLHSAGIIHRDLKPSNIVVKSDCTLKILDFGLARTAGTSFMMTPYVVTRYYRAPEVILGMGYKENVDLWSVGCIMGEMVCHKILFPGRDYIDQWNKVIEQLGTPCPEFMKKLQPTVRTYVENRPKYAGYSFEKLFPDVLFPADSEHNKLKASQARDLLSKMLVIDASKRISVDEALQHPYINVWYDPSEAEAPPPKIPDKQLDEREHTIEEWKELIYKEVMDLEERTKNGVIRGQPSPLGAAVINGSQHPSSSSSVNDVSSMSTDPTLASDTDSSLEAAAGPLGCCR
Sequence of Dual specificity protein kinase CLK3 (Homo sapiens) (P49761 whole entry, looked up): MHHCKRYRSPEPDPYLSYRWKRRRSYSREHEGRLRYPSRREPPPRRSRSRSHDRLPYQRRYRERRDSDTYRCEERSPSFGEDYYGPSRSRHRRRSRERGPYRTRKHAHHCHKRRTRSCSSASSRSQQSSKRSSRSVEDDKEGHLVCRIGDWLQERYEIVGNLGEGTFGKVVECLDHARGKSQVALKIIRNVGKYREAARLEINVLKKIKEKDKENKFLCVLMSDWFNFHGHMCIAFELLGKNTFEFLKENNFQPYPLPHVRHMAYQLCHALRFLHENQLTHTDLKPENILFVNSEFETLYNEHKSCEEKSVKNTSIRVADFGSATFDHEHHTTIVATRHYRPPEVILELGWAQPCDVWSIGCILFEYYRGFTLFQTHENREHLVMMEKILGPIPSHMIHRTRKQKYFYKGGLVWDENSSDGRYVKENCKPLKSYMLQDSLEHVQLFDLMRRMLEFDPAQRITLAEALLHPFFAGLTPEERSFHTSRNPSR
Sequence of Serine/threonine-protein kinase PAK 1 (Homo sapiens) (Q13153 whole entry): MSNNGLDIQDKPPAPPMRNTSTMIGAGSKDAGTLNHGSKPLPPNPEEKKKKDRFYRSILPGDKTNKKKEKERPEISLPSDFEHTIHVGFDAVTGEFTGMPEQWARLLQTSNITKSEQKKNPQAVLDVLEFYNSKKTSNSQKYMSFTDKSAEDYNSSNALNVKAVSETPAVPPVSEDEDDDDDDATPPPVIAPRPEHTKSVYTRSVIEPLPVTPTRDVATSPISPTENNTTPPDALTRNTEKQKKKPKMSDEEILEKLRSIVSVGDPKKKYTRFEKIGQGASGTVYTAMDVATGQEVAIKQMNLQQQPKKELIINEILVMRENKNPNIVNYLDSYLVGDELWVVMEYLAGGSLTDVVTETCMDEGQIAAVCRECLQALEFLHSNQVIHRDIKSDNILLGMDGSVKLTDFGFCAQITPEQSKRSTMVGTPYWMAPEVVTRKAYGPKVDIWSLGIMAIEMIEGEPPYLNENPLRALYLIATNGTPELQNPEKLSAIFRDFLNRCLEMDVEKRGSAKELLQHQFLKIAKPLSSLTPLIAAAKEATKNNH
Sequence of Tyrosine-protein kinase Yes (Homo sapiens) (P07947 2-543 limits assumed): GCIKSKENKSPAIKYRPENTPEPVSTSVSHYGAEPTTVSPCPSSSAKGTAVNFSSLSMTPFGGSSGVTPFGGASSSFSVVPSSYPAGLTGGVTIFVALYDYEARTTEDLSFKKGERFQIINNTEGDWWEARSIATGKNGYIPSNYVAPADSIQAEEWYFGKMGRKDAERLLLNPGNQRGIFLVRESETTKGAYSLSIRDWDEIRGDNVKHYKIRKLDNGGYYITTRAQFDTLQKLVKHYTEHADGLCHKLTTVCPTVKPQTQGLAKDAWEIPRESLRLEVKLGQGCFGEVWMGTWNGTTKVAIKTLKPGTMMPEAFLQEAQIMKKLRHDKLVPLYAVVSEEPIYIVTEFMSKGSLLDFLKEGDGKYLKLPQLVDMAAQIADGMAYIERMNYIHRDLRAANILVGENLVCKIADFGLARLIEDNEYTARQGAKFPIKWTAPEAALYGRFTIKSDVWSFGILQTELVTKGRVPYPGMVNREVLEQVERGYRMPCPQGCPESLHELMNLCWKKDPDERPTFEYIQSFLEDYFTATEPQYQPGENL

On to `C[C@]1(O)C[C@@H](c2nc(-c3ccc4ccc(-c5ccccc5)nc4c3)c3c(N)nccn32)C1`, for which the inhibition was -2.9% in [1]; 1.42% in experiment [2]; 5.65% in [3]; -0.8% in experiment [4]; -9.8% in [5]; -1.84% in experiment [6]. Further, the inhibition in experiment [7] is -0.8%; in [8] it was 2.03%; in experiment [9], -1.1%.
Turning to `C[C@@]1(C(=O)Nc2ccc(F)nc2)CCCN1c1nc(Nc2cc(C3CC3)n[nH]2)c2cccn2n1`, the inhibition was -6.78% in experiment [10] and 5.36% in [11].
Consider `Nc1n[nH]c2nnc(-c3c(-c4ccccc4)nn4ccccc34)cc12`, for which, in experiment [12], the inhibition was -3.88%.

The values are drawn from ChEMBL document CHEMBL5653615 (J Biol Chem, 2013).
